# Data: PubChem BioAssay (NCI)
# Where “and” joins values, the source holds several entries; their conditions need not be identical. Identical values can stand only once.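 All cell lines were grown in 96-well plates and treated with compound for 48 hours. Abbreviation: GI50, concentration required for 50% inhibition of growth. Definition used: TGI = concentration required for complete inhibition of growth.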
# Key:
# Test in all cases: growth of human tumour cells (NCI), 48 h
# UACC-62 melanoma = test system: UACC-62 melanoma
# MOLT-4 leukemia = test system: MOLT-4 leukemia
# SF-539 CNS = test system: SF-539 CNS
# IGROV1 ovarian = test system: IGROV1 ovarian
# ACHN renal = test system: ACHN renal
# SR leukemia = test system: SR leukemia
# SNB-75 CNS = test system: SNB-75 CNS
# NCI-H460 lung = test system: NCI-H460 lung
# 786-0 renal = test system: 786-0 renal
# NCI-H226 lung = test system: NCI-H226 lung
Structure (SMILES),TGI (UACC-62 melanoma),TGI (MOLT-4 leukemia),TGI (SF-539 CNS),TGI (IGROV1 ovarian),TGI (ACHN renal) [µM],TGI (SR leukemia) [µM],TGI (SNB-75 CNS),TGI (NCI-H460 lung),TGI (786-0 renal),TGI (NCI-H226 lung),GI50 (UACC-62 melanoma),GI50 (MOLT-4 leukemia),GI50 (SF-539 CNS),GI50 (IGROV1 ovarian),GI50 (ACHN renal) [µM],GI50 (SR leukemia),GI50 (NCI-H460 lung),GI50 (786-0 renal),GI50 (NCI-H226 lung),GI50 (SNB-75 CNS)
O=C1C=CC(O)C2C1CC13SSC4(CC5C(=O)C=CC(O)C5N4C1=O)C(=O)N23 (centres undefined),0.622 µM,> 100 µM,0.505 µM,3.43 µM,0.835,0.0727,5.14 µM,> 34.2 µM,0.49 µM,1.19 µM,,,,,,,,,,
Clc1nc(Cl)c2ncn(Cc3ccc(Cn4cnc5c(Cl)nc(Cl)nc54)cc3)c2n1,27.8 µM,16.1 µM,20.7 µM,20.6 µM,20.4,8.08,37.6 µM,22.2 µM,11.2 µM,51.6 µM,12.5 µM,3.88 µM,5.04 µM,6.08 µM,5.16,0.287 µM,4.75 µM,1.6 µM,11.2 µM,
O=[N+]([O-])c1ccc(S(=O)(=O)Cc2ccccc2)c2nonc12,35.1 µM,83.8 µM,35.5 µM,37.3 µM,46.1,> 100,98.5 µM,37.8 µM,37.5 µM,> 100 µM,,,,,,,,,,
O=C(NS(=O)(=O)c1ccccc1)C(Cc1ccccc1)C(Cc1ccccc1)C(=O)NS(=O)(=O)c1ccccc1 (centres undefined),> 100 µM,> 100 µM,> 100 µM,> 100 µM,> 100,> 100,> 100 µM,> 100 µM,> 100 µM,> 100 µM,,,,,,,,,,
COc1ccc2c(c1OC)C(=O)c1cnccc1C2=O,> 100 µM,> 100 µM,> 100 µM,> 100 µM,> 100,> 100,> 100 µM,> 100 µM,> 100 µM,> 100 µM,,,,,,,,,,
COc1cc(Cl)cc(-c2nn(-c3cccc(NC(=O)Nc4ccc(Cl)c(C(F)(F)F)c4)c3)cc2-c2ccncc2)c1,3.54 µM,4.65 µM,3.35 µM,29.1 µM,10.2,4.38,11.1 µM,4.08 µM,4.27 µM,14.7 µM,1.27 µM,1.23 µM,1.5 µM,3.2 µM,0.762,1.08 µM,0.77 µM,1.59 µM,2.5 µM,1.77 µM
Cc1nc(Nc2nc3ccccc3o2)nc(-c2cccc([N+](=O)[O-])c2)c1C(=O)Nc1ccc(F)c(Cl)c1,> 100 µM,16.9 µM,> 100 µM,> 100 µM,81.7,15.1,9.62 µM,17.7 µM,> 100 µM,> 100 µM,2.29 µM,3.24 µM,3.52 µM,2.94 µM,2.42,2.6 µM,1.43 µM,3.18 µM,3.05 µM,2.27 µM
COc1ccc(-c2nn(-c3cccc(NC(=O)c4ccc(N5CCOCC5)c(C(F)(F)F)c4)c3)cc2-c2ccncc2)cc1Cl,> 50 µM,> 50 µM,36.3 µM,> 50 µM,> 50,> 50,4.95 µM,> 50 µM,27.6 µM,> 50 µM,8.69 µM,4.5 µM,2.66 µM,> 50 µM,10.2,1.62 µM,5.23 µM,1.51 µM,21.3 µM,0.797 µM
N#Cc1cc(S(=O)(=O)Nc2nc3ccccc3s2)c(SCc2ccccc2)cc1Cl,29.5 µM,74.4 µM,34.8 µM,46.6 µM,75,> 100,63.3 µM,> 100 µM,39.9 µM,94.3 µM,11.8 µM,27.4 µM,17.4 µM,18.1 µM,24.7,37.7 µM,18.4 µM,19.3 µM,31 µM,26.2 µM
CCC(Oc1ccc(OC)c2ccccc(=O)c12)C(=O)O (centres undefined),> 100 µM,> 100 µM,> 100 µM,> 100 µM,> 100,> 100,> 100 µM,> 100 µM,> 100 µM,> 100 µM,,,,,,,,,,
C=C1c2c(Cl)ccc(O)c2C(O)=C2C(=O)[C@]3(O)C(O)=C(C(N)=O)C(=O)[C@@H](N(C)C)[C@@H]3[C@@H](O)[C@H]12,2.73 µM,12.3 µM,4.61 µM,5.22 µM,> 50,> 50,3.61 µM,7.54 µM,5.22 µM,8.91 µM,0.79 µM,1.89 µM,1.32 µM,1.03 µM,1.37,1.58 µM,1.17 µM,1.17 µM,1.59 µM,0.845 µM
[Cl][Cd][Cl],35.9 µM and 20.8 µM,> 83.4 µM and 82.9 µM,47.4 µM and 62.5 µM,> 60.6 µM and 16.1 µM,162,500,45.6 µM and 29.4 µM,17.6 µM and 24.9 µM,44.4 µM and 17.6 µM,> 69.7 µM and 43.6 µM,5.02 µM and 20.2 µM and 7.81 µM,31.4 µM and 11.8 µM,4.51 µM and 19.5 µM and 18.9 µM,4.32 µM and 29.7 µM and 8.4 µM,77.7,52.3 µM and 6.16 µM,1.44 µM and 4.53 µM and 1.16 µM,21 µM and 8.67 µM,> 44 µM and 11.9 µM,22.7 µM and 11.2 µM
Oc1ccc(Cl)cc1CNc1nc2ccccc2[nH]1,27.6 µM,> 100 µM,26.8 µM,41.3 µM,35.8,59.4,21.6 µM,26.3 µM,31.4 µM,50.2 µM,13.8 µM,10.7 µM,12.9 µM,18.3 µM,13.8,13.4 µM,12.5 µM,14.3 µM,19.6 µM,4.58 µM
O=C1c2nc3n(c2C(=O)c2c1nc1n2CCC1)CCC3,5.5 µM and 3.65 µM,> 67.6 µM,8.77 µM and 13.5 µM,24.5 µM,23.9,> 40.6,28.9 µM,6.24 µM,> 47.8 µM,19.1 µM,2.21 µM,,,,,3.58 µM,3.89 µM,9.25 µM,7.84 µM,
O=C(NO)c1ccc(O)c(O)c1,> 100 µM,> 100 µM,> 100 µM,> 100 µM,> 100,> 100,> 100 µM,> 100 µM,> 100 µM,> 100 µM,,,,,,,,,,
